Assay [1] addresses T1, Tyrosine-protein phosphatase non-receptor type 1 (Homo sapiens, UniProt P18031).
T1 sequence (P18031 whole entry): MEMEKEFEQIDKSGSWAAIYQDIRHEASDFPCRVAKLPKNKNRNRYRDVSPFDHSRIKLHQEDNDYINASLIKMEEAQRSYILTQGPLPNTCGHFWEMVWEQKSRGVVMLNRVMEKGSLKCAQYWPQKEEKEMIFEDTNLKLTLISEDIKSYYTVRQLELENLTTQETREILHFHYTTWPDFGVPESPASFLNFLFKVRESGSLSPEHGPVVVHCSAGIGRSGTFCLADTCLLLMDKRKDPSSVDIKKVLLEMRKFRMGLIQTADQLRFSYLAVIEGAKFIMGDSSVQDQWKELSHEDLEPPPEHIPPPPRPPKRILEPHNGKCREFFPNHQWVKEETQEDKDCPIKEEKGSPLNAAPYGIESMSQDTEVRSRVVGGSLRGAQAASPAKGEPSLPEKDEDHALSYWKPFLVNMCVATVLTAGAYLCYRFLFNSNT
As to the kind of experiment: Inhibition of recombinant PTP1B catalytic domain using pNPP as substrate assessed as pNP release.

Another assay relates to HeLa. As to the kind of experiment: Cytotoxicity against human HeLa cells after 48 hrs by MTT assay. The class given is functional, cell-based.
Another assay deals with A549. As to the kind of experiment: Cytotoxicity against human A549 cells after 48 hrs by MTT assay. The assay is classed as functional, cell-based. The note with it: A549, 48 h. On the technique in general: Formazan colour is commonly taken as a measure of viable cells.
A further assay deals with HCT-116. Kind of assay: Cytotoxicity against human HCT116 cells after 48 hrs by MTT assay. The class given is functional, cell-based. As to conditions: HCT-116, 48 h.
Assay [2] concerns the target Protein kinase C gamma type (Homo sapiens, UniProt P05129). As to the kind of experiment: Binding affinity at PKCgamma after 1 hr by luminescent kinase assay.
The target of assay [3] is Protein kinase C alpha type (Homo sapiens, UniProt P17252). As to the kind of experiment: Binding affinity at PKCalpha after 1 hr by luminescent kinase assay.

In the case of `CC(C)=CCC/C(C)=C/CC/C(C)=C/CCC1=CC[C@H]([C@@H]2CC(=O)NC2=O)O[C@@H]1O` [HIPPOLIDE A], the half-inhibitory concentration (IC50) in assay [1] was 23.8 µM; with HeLa it was 0.048 µM; in the assay with A549 it was 0.0522 µM; with HCT-116, 9.78 µM; in assay [2] it was 62 µM.
Turning to `CO[C@H]1O[C@@H]([C@@H]2CC(=O)NC2=O)CC=C1CC/C=C(\C)CC/C=C(\C)CCC=C(C)C` [HIPPOLIDE B], the half-inhibitory concentration (IC50) amounted to 39.7 µM in assay [1] and 35.1 µM in the assay with HCT-116.
`CC(C)=CCC/C(C)=C/CC/C(C)=C/CC/C(=C\C[C@H]1OC(=O)C=C1CO)CO` [HIPPOLIDE E]: in assay [3], the IC50 is 40.3 µM.

The IC50 is the concentration that gives 50% inhibition.

Values taken from ChEMBL document CHEMBL1781952, “Hippolides A-H, acyclic manoalide derivatives from the marine sponge Hippospongia lachne” (J Nat Prod, 2011).
